Measured values reported in patent US20240270762A1, “PENICILLIN-BINDING PROTEIN INHIBITORS” (priority 2021, published 2024).
≈ marks a conversion by molar mass, not a printed value. Read-outs that look alike come from different tables or passages of the source.

Experiments:
[1] = target: T1, PBP3 from Pseudomonas aeruginosa (PAO1) (Pseudomonas aeruginosa, UniProt G3XD46); assay: Bocillin-FL fluorescence polarization competition binding, P. aeruginosa PBP3; details: Binding affinity to P. aeruginosa PBP3; fluorescence polarization competition binding assay using Bocillin-FL; read-out: P. aeruginosa PBP3 Potency
T1 construct: made in house
T1 sequence (G3XD46 whole entry): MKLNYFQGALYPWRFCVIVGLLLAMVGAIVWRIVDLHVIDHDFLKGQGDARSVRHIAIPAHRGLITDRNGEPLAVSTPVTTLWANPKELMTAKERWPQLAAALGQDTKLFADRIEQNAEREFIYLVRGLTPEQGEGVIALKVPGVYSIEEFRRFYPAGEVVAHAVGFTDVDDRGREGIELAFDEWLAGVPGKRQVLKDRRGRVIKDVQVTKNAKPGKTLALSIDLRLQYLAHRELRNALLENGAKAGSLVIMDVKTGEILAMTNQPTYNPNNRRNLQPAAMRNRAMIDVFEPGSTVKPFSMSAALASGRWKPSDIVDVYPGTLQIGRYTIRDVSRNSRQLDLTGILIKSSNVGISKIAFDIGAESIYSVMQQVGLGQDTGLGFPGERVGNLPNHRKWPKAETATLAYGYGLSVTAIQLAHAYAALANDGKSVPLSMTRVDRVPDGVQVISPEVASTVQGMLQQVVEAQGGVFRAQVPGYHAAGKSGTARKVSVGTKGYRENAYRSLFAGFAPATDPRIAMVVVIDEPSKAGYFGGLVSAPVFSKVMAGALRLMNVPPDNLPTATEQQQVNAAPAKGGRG
Outline: (§1)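 Purified PBP was preincubated with inhibitor (E. coli PBP3 1.5 μM, 30 min; P. aeruginosa PBP3 0.75 μM, A. baumannii PBP3 0.2 μM and PBP1a 1 μM, 15 min), then Bocillin-FL (0.1 μM; 0.05 μM for PBP1a) added and FP read up to 60 min. EC50 = 50% loss of bound probe.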

[2] = target: T2, PBP3 from Acinetobacter baumannii (ATCC 19606) (Acinetobacter baumannii, UniProt A0ABX6CK25); assay: Bocillin-FL fluorescence polarization competition binding, A. baumannii PBP3; details: fluorescence polarization competition binding assay using Bocillin-FL; read-out: A. baumannii PBP3 Potency
T2 sequence (A0ABX6CK25 64-610): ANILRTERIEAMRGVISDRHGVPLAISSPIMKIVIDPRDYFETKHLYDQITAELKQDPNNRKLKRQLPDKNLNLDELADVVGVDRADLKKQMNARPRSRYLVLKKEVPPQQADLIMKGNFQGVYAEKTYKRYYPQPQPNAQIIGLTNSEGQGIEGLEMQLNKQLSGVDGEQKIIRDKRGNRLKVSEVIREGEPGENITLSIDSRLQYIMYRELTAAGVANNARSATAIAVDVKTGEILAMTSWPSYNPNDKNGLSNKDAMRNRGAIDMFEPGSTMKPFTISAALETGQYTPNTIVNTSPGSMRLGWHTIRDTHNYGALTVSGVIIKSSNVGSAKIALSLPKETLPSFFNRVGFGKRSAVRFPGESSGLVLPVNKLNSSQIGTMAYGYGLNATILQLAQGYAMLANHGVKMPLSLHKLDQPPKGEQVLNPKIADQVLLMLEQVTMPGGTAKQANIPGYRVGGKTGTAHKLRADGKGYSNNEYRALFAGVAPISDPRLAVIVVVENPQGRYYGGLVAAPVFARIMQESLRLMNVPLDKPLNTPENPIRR
Outline: as §1

P. aeruginosa ATCC 35151 = assay: microbe, parasite or virus in culture; format: cell-based; details: Pseudomonas aeruginosa, ATCC35151, read-out: Minimum inhibitory concentration, P. aeruginosa ATCC 35151
[3] = system: P. aeruginosa (ΔmexAB-oprM); assay: Broth microdilution MIC in iron-depleted CAMHB (IDM); format: cell-based; details: Pseudomonas aeruginosa; iron-depleted CAMHB (IDM); […]; read-out: Minimum inhibitory concentration, P. aeruginosa ΔmexAB-oprM
P. aeruginosa CDC-0095 = assay: microbe, parasite or virus in culture; format: cell-based; details: Pseudomonas aeruginosa, CDC0095, read-out: Minimum inhibitory concentration, P. aeruginosa CDC-0095
A. baumannii 1258916 = assay: microbe, parasite or virus in culture; format: cell-based, Acinetobacter baumannii
A. baumannii CDC-0033 = assay: microbe, parasite or virus in culture; format: cell-based; details: Acinetobacter baumannii
A. baumannii CDC-0036 = assay: microbe, parasite or virus in culture; format: cell-based; details: Acinetobacter baumannii
P. aeruginosa CDC-0110 = assay: microbe, parasite or virus in culture; format: cell-based; details: Pseudomonas aeruginosa, CDC0110, read-out: Minimum inhibitory concentration, P. aeruginosa CDC-0110
[4] = Acinetobacter baumannii, 1258916, read-out: MIC, A. baumannii 1258916
[5] = CDC0033, read-out: MIC, A. baumannii CDC-0033
[6] = CDC0036, read-out: MIC, A. baumannii CDC-0036
[7] = Acinetobacter baumannii, 1258916, read-out: Minimum inhibitory concentration (MIC), A. baumannii 1258916
[8] = CDC0033, read-out: Minimum inhibitory concentration (MIC), A. baumannii CDC-0033
[9] = CDC0036, read-out: Minimum inhibitory concentration (MIC), A. baumannii CDC-0036

SMILES	IC50 [1]	IC50 [2]	MIC (P. aeruginosa ATCC 35151)	MIC [3]	MIC (P. aeruginosa CDC-0095)	MIC (A. baumannii 1258916; [4])	MIC (A. baumannii CDC-0033; [5])	MIC (A. baumannii CDC-0036; [6])	MIC (P. aeruginosa CDC-0110)	MIC (A. baumannii 1258916; [7])	MIC (A. baumannii CDC-0033; [8])	MIC (A. baumannii CDC-0036; [9])
O=C(O)c1c(F)ccc2c1OB(O)[C@@H](NC(=O)[C@H](NC(=O)N1CCN(Cc3ccc(O)c(O)c3Cl)C(=O)C1=O)c1ccc(P(=O)(O)O)cc1)C2 (single isomer, unassigned) [Example 160]	< 10 µM	< 10 µM	< 1 µg/mL	< 1 µg/mL	< 1 µg/mL	< 1 µg/mL	< 1 µg/mL	< 1 µg/mL	< 1 µg/mL			
O=C(O)c1c(F)ccc2c1OB(O)[C@@H](NC(=O)[C@H](NC(=O)N1CCN(Cc3ccc(O)c(O)c3Cl)C(=O)C1=O)c1cccc(P(=O)(O)O)c1)C2 (single isomer, unassigned) [Example 163]	< 10 µM	< 10 µM	< 1 µg/mL	< 1 µg/mL	< 1 µg/mL	< 1 µg/mL	< 1 µg/mL	< 1 µg/mL	< 1 µg/mL			
O=C(NCCS(=O)(=O)N1CCN(C(=O)N[C@@H](C(=O)N[C@H]2Cc3ccc(F)c(C(=O)O)c3OB2O)c2ccc(P(=O)(O)O)cc2)C1=O)c1ccc(O)c(O)c1Cl (single isomer, unassigned) [Example 168]	< 10 µM	< 10 µM	2 to 4 µg/mL (≈ 2.42 to 4.83 µM)	8 to 16 µg/mL (≈ 9.66 to 19.3 µM)	8 to 16 µg/mL (≈ 9.66 to 19.3 µM)	2 to 4 µg/mL (≈ 2.42 to 4.83 µM)	32 to 64 µg/mL (≈ 38.7 to 77.3 µM)	2 to 4 µg/mL (≈ 2.42 to 4.83 µM)	32 to 64 µg/mL (≈ 38.7 to 77.3 µM)			
O=C(NCCCS(=O)(=O)N1CCN(C(=O)N[C@H](C(=O)N[C@H]2Cc3ccc(F)c(C(=O)O)c3OB2O)c2ccc(P(=O)(O)O)cc2)C1=O)c1ccc(O)c(O)c1Cl (single isomer, unassigned) [Example 169]	> 250 µM	10 to 50 µM	> 128 µg/mL	> 128 µg/mL	> 128 µg/mL	> 128 µg/mL	> 128 µg/mL	> 128 µg/mL	> 128 µg/mL			
O=C(O)c1c(F)ccc2c1OB(O)[C@@H](NC(=O)[C@H](NC(=O)N1CCN(C3CCN(C(=O)Nc4ccc(O)cc4)CC3)C(=O)C1=O)c1cc(F)c(O)c(O)c1Cl)C2 (single isomer, unassigned) [Example 426]	< 10 µM	< 10 µM	< 1 µg/mL	< 1 µg/mL	2 to 4 µg/mL (≈ 2.5 to 4.99 µM)	2 to 4 µg/mL (≈ 2.5 to 4.99 µM)	2 to 4 µg/mL (≈ 2.5 to 4.99 µM)	8 to 16 µg/mL (≈ 9.99 to 20 µM)	< 1 µg/mL			
O=C(O)c1c(F)ccc2c1OB(O)[C@@H](NC(=O)C(NC(=O)N1CCN(C3CCN(C(=O)Nc4c(F)ccc(O)c4F)CC3)C(=O)C1=O)c1cc(F)c(O)c(O)c1Cl)C2 (stereo partly drawn) [Example 487, (3R)-3-(2-(2-chloro-5-fluoro-3,4-dihydroxyphenyl)-2-(4-(1-((2,6-difluoro-3-hydroxyphenyl)carbamoyl)piperidin-4-yl)-2,3-dioxopiperazine-1-carboxamido)acetamido)-7-fluoro-2-hydroxy-3,4-dihydro-2H-benzo[e][1,2]oxaborinine-8-carboxylic acid]	< 10 µM	< 10 µM	< 1 µg/mL	< 1 µg/mL	< 1 µg/mL					< 1 µg/mL	2 to 4 µg/mL (≈ 2.39 to 4.78 µM)	< 1 µg/mL
O=C(O)c1c(F)ccc2c1OB(O)[C@@H](NC(=O)C(NC(=O)N1CCN(C3CCN(C(=O)Nc4cc(O)c(F)c(F)c4)CC3)C(=O)C1=O)c1cc(F)c(O)c(O)c1Cl)C2 (stereo partly drawn) [Example 488, (3R)-3-(2-(2-chloro-5-fluoro-3,4-dihydroxyphenyl)-2-(4-(1-((3,4-difluoro-5-hydroxyphenyl)carbamoyl)piperidin-4-yl)-2,3-dioxopiperazine-1-carboxamido)acetamido)-7-fluoro-2-hydroxy-3,4-dihydro-2H-benzo[e][1,2]oxaborinine-8-carboxylic acid]	< 10 µM	< 10 µM	< 1 µg/mL	< 1 µg/mL	2 to 4 µg/mL (≈ 2.39 to 4.78 µM)					< 1 µg/mL	2 to 4 µg/mL (≈ 2.39 to 4.78 µM)	2 to 4 µg/mL (≈ 2.39 to 4.78 µM)
O=C(O)c1c(F)ccc2c1OB(O)[C@@H](NC(=O)C(NC(=O)N1CCN(C3CCN(C(=O)Nc4ccc(Cl)c(O)c4F)CC3)C(=O)C1=O)c1cc(F)c(O)c(O)c1Cl)C2 (stereo partly drawn) [Example 489, (3R)-3-(2-(4-(1-((4-chloro-2-fluoro-3-hydroxyphenyl)carbamoyl)piperidin-4-yl)-2,3-dioxopiperazine-1-carboxamido)-2-(2-chloro-5-fluoro-3,4-dihydroxyphenyl)acetamido)-7-fluoro-2-hydroxy-3,4-dihydro-2H-benzo[e][1,2]oxaborinine-8-carboxylic acid]	< 10 µM	< 10 µM	< 1 µg/mL	< 1 µg/mL	< 1 µg/mL					< 1 µg/mL	2 to 4 µg/mL (≈ 2.34 to 4.69 µM)	2 to 4 µg/mL (≈ 2.34 to 4.69 µM)
O=C(O)c1c(F)ccc2c1OB(O)[C@@H](NC(=O)C(NC(=O)N1CCN(C3CCN(C(=O)Nc4cc(O)c(F)cc4Cl)CC3)C(=O)C1=O)c1cc(F)c(O)c(O)c1Cl)C2 (stereo partly drawn) [Example 490, (3R)-3-(2-(4-(1-((2-chloro-4-fluoro-5-hydroxyphenyl)carbamoyl)piperidin-4-yl)-2,3-dioxopiperazine-1-carboxamido)-2-(2-chloro-5-fluoro-3,4-dihydroxyphenyl)acetamido)-7-fluoro-2-hydroxy-3,4-dihydro-2H-benzo[e][1,2]oxaborinine-8-carboxylic acid]	< 10 µM	< 10 µM	< 1 µg/mL	< 1 µg/mL	2 to 4 µg/mL (≈ 2.34 to 4.69 µM)					2 to 4 µg/mL (≈ 2.34 to 4.69 µM)	2 to 4 µg/mL (≈ 2.34 to 4.69 µM)	2 to 4 µg/mL (≈ 2.34 to 4.69 µM)
O=C(O)c1c(F)ccc2c1OB(O)[C@@H](NC(=O)[C@H](NC(=O)N1CCN(C3CCN(C(=O)Nc4cc(F)c(F)c(O)c4F)CC3)C(=O)C1=O)c1cc(F)c(O)c(O)c1Cl)C2 [Example 491, (R)-3-((R)-2-(2-chloro-5-fluoro-3,4-dihydroxyphenyl)-2-(2,3-dioxo-4-(1-((2,4,5-trifluoro-3-hydroxyphenyl)carbamoyl)piperidin-4-yl)piperazine-1-carboxamido)acetamido)-7-fluoro-2-hydroxy-3,4-dihydro-2H-benzo[e][1,2]oxaborinine-8-carboxylic acid]	< 10 µM	< 10 µM	< 1 µg/mL	< 1 µg/mL	2 to 4 µg/mL (≈ 2.34 to 4.68 µM)					< 1 µg/mL	2 to 4 µg/mL (≈ 2.34 to 4.68 µM)	2 to 4 µg/mL (≈ 2.34 to 4.68 µM)
O=C(O)c1c(F)ccc2c1OB(O)[C@@H](NC(=O)[C@H](NC(=O)N1CCN(C3CCN(Cc4cccnc4)CC3)C1=O)c1cc(F)c(O)c(O)c1Cl)C2 [Example 492, (R)-3-((R)-2-(2-chloro-5-fluoro-3,4-dihydroxyphenyl)-2-(2-oxo-3-(1-(pyridin-3-ylmethyl)piperidin-4-yl)imidazolidine-1-carboxamido)acetamido)-7-fluoro-2-hydroxy-3,4-dihydro-2H-benzo[e][1,2]oxaborinine-8-carboxylic acid]	< 10 µM	< 10 µM	< 1 µg/mL	< 1 µg/mL	2 to 4 µg/mL (≈ 2.74 to 5.49 µM)					< 1 µg/mL	< 1 µg/mL	2 to 4 µg/mL (≈ 2.74 to 5.49 µM)
O=C(O)c1c(F)ccc2c1OB(O)[C@@H](NC(=O)[C@H](NC(=O)N1CCN(C3CCN(Cc4ccncc4)CC3)C1=O)c1cc(F)c(O)c(O)c1Cl)C2 [Example 493, (R)-3-((R)-2-(2-chloro-5-fluoro-3,4-dihydroxyphenyl)-2-(2-oxo-3-(1-(pyridin-4-ylmethyl)piperidin-4-yl)imidazolidine-1-carboxamido)acetamido)-7-fluoro-2-hydroxy-3,4-dihydro-2H-benzo[e][1,2]oxaborinine-8-carboxylic acid]	< 10 µM	< 10 µM	< 1 µg/mL	< 1 µg/mL	< 1 µg/mL					< 1 µg/mL	2 to 4 µg/mL (≈ 2.74 to 5.49 µM)	< 1 µg/mL
